Source: patent US12202805B2, “Process for preparing (5S)-{[2-(4-carboxyphenyl)ethyl] |2-(2-{|3-chloro-4'-(trifluoromethyl)biphenyl-4-yl]methoxy}phenyl)ethyl]aminol-5,6,7,8-tetrahydroquinoline-2-carboxylic acid and its crystalline forms for use as pharmaceutically active compound” (Bayer Aktiengesellschaft, priority 2021, dated 2025)

Legend:
[1] = test system: acetylcholine [ACh] rat model; assay: Acetylcholine [ACh] rat model (bronchodilation); conditions: in vivo
[2] = Protein binding via Transil assay, dog plasma; format: in vitro ADME
Description: (§1) Protein Binding of Comparative Example 11 and Comparative Example 1 was Analyzed Via Transil Assay, Described Below.
(§2) The distribution of a test substance between Transil® (phosphatidylcholine lipid bilayers immobilized on silica beads) and plasma is a characteristic feature of any pharmaceutical compound and is dependent on its extent of binding to plasma proteins. By comparing the distribution between Transil® and buffer with the distribution between Transil® and plasma of any species of interest, the unbound fraction in the plasma of the respective animal species can be calculated in vitro. The respective plasma and buffer concentrations were determined via a radioactivity analysis. A detailed description of the method and its validation was published by Schuhmacher et al. (2).

[3] = test system: chronic ovalbumin asthma mice model; assay: Chronic ovalbumin asthma mice model; conditions: mouse, in vivo
[4] = Protein binding via Transil assay, minipig plasma; format: in vitro ADME; conditions: read-out: plasma fu (fraction unbound)
Description: as §1, §2

Structure (SMILES) | effect on ventilation [1] | fraction unbound, times lower than comparative example 1 [2] [times] | effect on airway hyper-responsiveness and inflammation [3] | fraction unbound [4]
O=C(O)c1ccc(CCN(CCc2ccccc2OCc2ccc(-c3ccc(C(F)(F)F)cc3)cc2Cl)[C@H]2CCCc3nc(C(=O)O)ccc32)cc1 [comparative example 11, (5S)-5-{[2-(4-carboxyphenyl)ethyl][2-(2-{[3-chloro-4′-(trifluoromethyl)[biphenyl]-4-yl]methoxy}phenyl)ethyl]amino}-5,6,7,8-tetrahydroquinoline-2-carboxylic acid] | bronchodilatory effect | 10 | inhibitory effect on airway hyper-responsiveness and inflammation | –
O=C(O)c1ccc(CCN(CCc2ccccc2OCc2ccc(-c3ccc(C(F)(F)F)cc3)cc2Cl)[C@H]2CCCc3nc(C(=O)O)ccc32)cc1 [example 2, (5S)—{[2-(4-Carboxyphenyl)ethyl][2-(2-{[3-chloro-4′-(trifluoromethyl)biphenyl-4-yl]methoxy}phenyl)-ethyl]amino}-5,6,7,8-tetrahydroquinoline-2-carboxylic acid as Monohydrate II] | – | – | – | 0.00348
